We go through 24 compounds from US20260374754A1, “N-((ISOQUINOLIN-6-YL)METHYL)-1H-PYRAZOLE-4-CARBOXAMIDE DERIVATIVES AS PLASMA KALLIKREIN INHIBITORS FOR THE TREATMENT OF HEREDITARY ANGIODEMA” (Takeda Pharmaceutical Company Limited, priority 2022, published 2026).

Experiment [1] deals with T1, plasma kallikrein (Homo sapiens, UniProt P03952).
T1 construct: PFR-AMC substrate
Kind of experiment: Neat Human Plasma Assay (Fluorogenic Peptide), contact pathway-activated (FXIIa) plasma. Format: biochemical. The settings on record: human citrated plasma 78% final; 10 nM human FXIIa; PFR-AMC substrate; 5 minutes; room temperature. The procedure:
To analyze inhibition of plasma kallikrein in an ex vivo setting, the potency of compounds was measure in contact pathway-activated plasma assays. In a fluorogenic peptide substrate assay, test compounds dissolved in DMSO were added to sodium citrate collected human or rat plasma in a 96-well microplate. Alternatively, citrated plasma was collected from rats administered the compounds orally or by IV. 10 nM of human FXIIa (Enzyme Research Laboratories) diluted in PKa buffer (20 mM Tris-HCl, pH 7.5, 150 mM NaCl, 1 mM EDTA, 0.1% PEG-8000, and 0.1% Triton X-100) was added to the plasma, followed by the […] of the profluorescent, synthetic plasma kallikrein substrate PFR-AMC (also diluted in PKa buffer). Final plasma concentration in the reaction was 78%. Fluorescence was immediately monitored by excitation/emission wavelengths of 360 nm/480 nm respectively over a period of 5 minutes in a microplate reader. The resulting linear increase in fluorescence emission (reflecting PKa proteolysis of PFR-AMC substrate) was fit to extract a proteolytic rate (fluorescent units over time), and this rate was subsequently plotted against compound inhibitor concentration. Resulting plots were fit to a standard 4-parameter IC50/IC90 equation to determine min/max values, IC50/90, and slope. All experimental steps were performed at room temperature.

Experiment [2] has as its target human activated kallikrein enzyme (Homo sapiens, UniProt P03952). Kind of experiment: Inhibition of human activated plasma kallikrein, fluorogenic PFR-AMC substrate, 500 pM enzyme format. It counts as biochemical. The settings on record: 500 pM activated kallikrein; 300 μM PFR-AMC; 30 min preincubation; 10 min room temperature; pH 7.5; read-out: Primary Dose Response Assay: Average EC50. In outline: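 500 pM activated kallikrein preincubated 30 min at room temperature with inhibitors in pH 7.5 Tris/EDTA/NaCl buffer with PEG-400 and Triton X-100. Reaction started with 300 μM PFR-AMC, run 10 min at room temperature; AMC fluorescence read at ex 380/em 460 nm.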

Each structure is given as a SMILES string. Counter-ions that a name gives are not always drawn. Some results are limits rather than exact numbers.

Chain of human activated kallikrein enzyme (P03952 391-638 limits assumed): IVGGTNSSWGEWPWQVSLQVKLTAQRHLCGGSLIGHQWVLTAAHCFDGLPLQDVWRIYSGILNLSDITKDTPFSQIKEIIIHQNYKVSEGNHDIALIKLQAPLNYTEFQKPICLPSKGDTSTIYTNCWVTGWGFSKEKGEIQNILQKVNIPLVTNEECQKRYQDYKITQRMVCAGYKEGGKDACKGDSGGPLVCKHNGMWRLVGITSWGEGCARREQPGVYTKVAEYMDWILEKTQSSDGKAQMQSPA
Chain of human activated kallikrein enzyme (P03952 20-390 partner limits assumed): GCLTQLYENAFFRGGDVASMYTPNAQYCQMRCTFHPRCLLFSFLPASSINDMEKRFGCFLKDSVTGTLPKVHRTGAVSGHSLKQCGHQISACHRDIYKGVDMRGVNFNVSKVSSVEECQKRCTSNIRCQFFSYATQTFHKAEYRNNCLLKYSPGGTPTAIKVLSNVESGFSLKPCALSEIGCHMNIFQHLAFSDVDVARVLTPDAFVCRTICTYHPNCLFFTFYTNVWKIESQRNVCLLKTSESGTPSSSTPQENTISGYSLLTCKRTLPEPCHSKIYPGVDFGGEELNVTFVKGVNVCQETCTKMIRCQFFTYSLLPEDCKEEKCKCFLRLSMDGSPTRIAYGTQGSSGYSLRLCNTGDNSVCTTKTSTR
T1 sequence (P03952 20-638): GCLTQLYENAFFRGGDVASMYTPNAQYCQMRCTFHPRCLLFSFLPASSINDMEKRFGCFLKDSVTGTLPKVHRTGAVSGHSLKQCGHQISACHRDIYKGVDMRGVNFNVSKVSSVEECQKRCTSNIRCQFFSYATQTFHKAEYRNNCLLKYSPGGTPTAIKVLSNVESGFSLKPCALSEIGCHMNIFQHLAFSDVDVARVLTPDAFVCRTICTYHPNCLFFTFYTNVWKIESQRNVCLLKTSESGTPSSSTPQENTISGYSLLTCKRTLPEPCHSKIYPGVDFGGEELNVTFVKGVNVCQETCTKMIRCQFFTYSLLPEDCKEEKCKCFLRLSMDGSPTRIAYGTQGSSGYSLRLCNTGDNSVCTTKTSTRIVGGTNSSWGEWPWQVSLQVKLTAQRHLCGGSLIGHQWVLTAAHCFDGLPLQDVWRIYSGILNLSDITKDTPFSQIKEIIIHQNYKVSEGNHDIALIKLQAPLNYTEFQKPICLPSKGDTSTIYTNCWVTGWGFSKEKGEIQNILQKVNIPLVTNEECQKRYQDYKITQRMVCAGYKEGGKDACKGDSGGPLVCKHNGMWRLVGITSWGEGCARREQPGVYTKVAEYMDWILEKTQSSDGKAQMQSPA

In the case of `Cc1cc2c(N)nccc2c(C)c1CNc1cc(OCc2cc3cc(C4CC4)cnc3s2)ncn1` [Example 281, 6-(((6-((5-cyclopropylthieno[2,3-b]pyridin-2-yl)methoxy)pyrimidin-4-yl)amino)methyl)-5,7-dimethylisoquinolin-1-amine], the IC90 (usually the concentration needed for an effect of 90%) in experiment [1] is greater than 5 µM. The concentration for a half-maximal effect (EC50) (in general, the midpoint of the concentration-response curve) in experiment [2] was in the range of 1 to 10 nM.

Compound `Cc1cc2c(N)nccc2c(C)c1CNc1cc2c(ccn2Cc2cc3cc(C4CC4)cnc3s2)cn1` [Example 283, 6-(((1-((5-cyclopropylthieno[2,3-b]pyridin-2-yl)methyl)-1H-pyrrolo[3,2-c]pyridin-6-yl)amino)methyl)-5,7-dimethylisoquinolin-1-amine] displayed an IC90 in experiment [1] of 1 to 5 µM. Besides, the EC50 in experiment [2] was in the range of 1 to 10 nM.

The compound `Cc1cc2c(N)nccc2c(C)c1CNc1cc(OCc2cn3cc(C4CC4)ccc3n2)ccn1` [Example 284, 6-(((4-((6-cyclopropylimidazo[1,2-a]pyridin-2-yl)methoxy)pyridin-2-yl)amino)methyl)-5,7-dimethylisoquinolin-1-amine] showed a 90% effect concentration (IC90) in experiment [1] greater than 5 µM. Moreover, in experiment [2], the half-maximal effective concentration (EC50) was less than 1 nM.

With `Cc1cc2c(N)nccc2c(C)c1CNc1cc2c(cn1)c(F)cn2Cc1cn2cc(C3CC3)ccc2n1` [Example 285, 6-(((1-((6-cyclopropylimidazo[1,2-a]pyridin-2-yl)methyl)-3-fluoro-1H-pyrrolo[3,2-c]pyridin-6-yl)amino)methyl)-5,7-dimethylisoquinolin-1-amine], in experiment [1], the concentration for an effect of 90% (IC90) lay in the range of 1 to 5 µM. In addition, in experiment [2], the 50% effective concentration (EC50) is 1 to 10 nM.

In turn, `Cc1cc2c(N)nccc2c(C)c1CNc1ncncc1NCc1cn2cc(C3CC3)ccc2n1` [Example 288, N4-((1-amino-5,7-dimethylisoquinolin-6-yl)methyl)-N5-((6-cyclopropylimidazo[1,2-a]pyridin-2-yl)methyl)pyrimidine-4,5-diamine] showed an IC90 in experiment [1] greater than 5 µM. Moreover, the EC50 in experiment [2] is 1 to 10 nM.

In experiment [1], `Cc1cc2c(N)nccc2c(C)c1CNc1cc(SCc2cn3cc(C4CC4)ccc3n2)ncn1` [Example 290, 6-(((6-(((6-cyclopropylimidazo[1,2-a]pyridin-2-yl)methyl)thio)pyrimidin-4-yl)amino)methyl)-5,7-dimethylisoquinolin-1-amine] displayed a 90% effect concentration (IC90) of 1 to 5 µM. Besides, in experiment [2], the EC50 is less than 1 nM.

For `Cc1cc2c(N)nccc2c(C)c1CNc1cc(OCc2cn3cc(C4CC4)ccc3n2)ncn1` [Example 305, 6-(((6-((6-cyclopropylimidazo[1,2-a]pyridin-2-yl)methoxy)pyrimidin-4-yl)amino)methyl)-5,7-dimethylisoquinolin-1-amine], in experiment [1], the 90% effect concentration (IC90) was greater than 5 µM. Also, the concentration giving a half-maximal response (EC50) in experiment [2] is less than 1 nM.

In turn, `Cc1cc2c(N)nccc2c(C)c1CNc1cc(NCc2cn3cc(Cl)ccc3n2)ncn1` [Example 313, N^4-((1-amino-5,7-dimethylisoquinolin-6-yl)methyl)-N^6-((6-chloroimidazo[1,2-a]pyridin-2-yl)methyl)pyrimidine-4,6-diamine, formic acid salt] displayed a 90% effect concentration (IC90) in experiment [1] greater than 5 µM. Besides, the concentration for a half-maximal effect (EC50) in experiment [2] was less than 1 nM.

For the compound `Cc1cc2c(N)nccc2c(C)c1CNc1cc(NCc2ccc3ncc(C4CC4)cc3c2)ncn1` [Example 314, N^4-((1-amino-5,7-dimethylisoquinolin-6-yl)methyl)-N^6-((3-cyclopropylquinolin-6-yl)methyl)pyrimidine-4,6-diamine], the 90% effect concentration (IC90) in experiment [1] lay in the range of 1 to 5 µM. Moreover, the concentration for a half-maximal effect (EC50) in experiment [2] was less than 1 nM.

In turn, `Cc1cc2c(N)nccc2c(C)c1CNc1cc(NCc2cn3cc(C4CC4)ccc3n2)ncn1` [Example 331, N^4-((1-amino-5,7-dimethylisoquinolin-6-yl)methyl)-N^6-((6-cyclopropylimidazo[1,2-a]pyridin-2-yl)methyl)pyrimidine-4,6-diamine] had a concentration for an effect of 90% (IC90) in experiment [1] of 1 to 5 µM. Also, in experiment [2], the EC50 is less than 1 nM.

For `Cc1cc2c(N)nccc2c(C)c1CNc1cc(NCc2ccc(Cn3cccn3)cc2)ncn1` [Example 340, N^4-(4-((1H-pyrazol-1-yl)methyl)benzyl)-N^6-((1-amino-5,7-dimethylisoquinolin-6-yl)methyl)pyrimidine-4,6-diamine], in experiment [1], the 90% effect concentration (IC90) is greater than 5 µM. For the same compound, the EC50 in experiment [2] is less than 1 nM.

In the case of `Cc1ccc2cc(COc3cc(NCc4c(C)cc5c(N)nccc5c4C)ncn3)ccc2n1` [Example 371, 5,7-dimethyl-6-(((6-((2-methylquinolin-6-yl)methoxy)pyrimidin-4-yl)amino)methyl)isoquinolin-1-amine], in experiment [1], the 90% effect concentration (IC90) fell in the range of 1 to 5 µM. Besides, the concentration for a half-maximal effect (EC50) in experiment [2] lay in the range of 1 to 10 nM.

With `Cc1cc2c(N)nccc2c(C)c1CNc1cc(OCc2ccc3ncc(Cl)cc3c2)ncn1` [Example 373, 6-(((6-((3-chloroquinolin-6-yl)methoxy)pyrimidin-4-yl)amino)methyl)-5,7-dimethylisoquinolin-1-amine formic acid salt], in experiment [1], the concentration for an effect of 90% (IC90) is greater than 5 µM. Also, the 50% effective concentration (EC50) in experiment [2] lay in the range of 1 to 10 nM.

`Cc1cc2c(N)nccc2c(C)c1CNc1cc(OCc2nc3ncc(C4CC4)cn3n2)ncn1` [Example 384, 6-(((6-((6-cyclopropyl-[1,2,4]triazolo[1,5-a]pyrimidin-2-yl)methoxy)pyrimidin-4-yl)amino)methyl)-5,7-dimethylisoquinolin-1-amine] came in with an IC90 in experiment [1] of 1 to 5 µM. For the same compound, the EC50 in experiment [2] was in the range of 1 to 10 nM.

As to `Cc1cc2c(N)nccc2c(C)c1CNc1cc(OCc2ccc3ncc(C4CC4)cc3c2)ncn1` [Example 386, 6-(((6-((3-cyclopropylquinolin-6-yl)methoxy)pyrimidin-4-yl)amino)methyl)-5,7-dimethylisoquinolin-1-amine], the IC90 in experiment [1] was greater than 5 µM. Further, the EC50 in experiment [2] lay within 1 to 10 nM.

In experiment [1], `Cc1cc2c(N)nccc2c(C)c1CNc1cc(OCc2cnc3ccc(C4CC4)cc3c2)ncn1` [Example 387, 6-(((6-((6-cyclopropylquinolin-3-yl)methoxy)pyrimidin-4-yl)amino)methyl)-5,7-dimethylisoquinolin-1-amine] had a concentration for an effect of 90% (IC90) greater than 5 µM. In addition, in experiment [2], the EC50 is 1 to 10 nM.

On to `Cc1cc2c(N)nccc2c(C)c1CNc1cc(OCc2nc3ccc(C4CC4)cn3n2)ncn1` [Example 388, 6-(((6-((6-cyclopropyl-[1,2,4]triazolo[1,5-a]pyridin-2-yl)methoxy)pyrimidin-4-yl)amino)methyl)-5,7-dimethylisoquinolin-1-amine], for which the IC90 in experiment [1] is greater than 5 µM. For the same compound, in experiment [2], the EC50 fell in the range of 1 to 10 nM.

As to `Cc1c(CNc2cc(OCc3cn4cc(C5CC5)ccc4n3)ncn2)c(C2(C)CC2)cc2c(N)nccc12` [Example 390, 6-(((6-((6-cyclopropylimidazo[1,2-a]pyridin-2-yl)methoxy)pyrimidin-4-yl)amino)methyl)-5-methyl-7-(1-methylcyclopropyl)isoquinolin-1-amine], the IC90 in experiment [1] is greater than 5 µM. For the same compound, the EC50 in experiment [2] is less than 1 nM.

Compound `Cc1cc2c(N)nccc2c(C)c1CNc1cc(OCc2nc3ccc(C4CC4)nn3n2)ncn1` [Example 391, 6-(((6-((6-cyclopropyl-[1,2,4]triazolo[1,5-b]pyridazin-2-yl)methoxy)pyrimidin-4-yl)amino)methyl)-5,7-dimethylisoquinolin-1-amine] showed an IC90 in experiment [1] greater than 5 µM. Moreover, the concentration giving a half-maximal response (EC50) in experiment [2] lay within 10 to 100 nM.

For `Cc1cc2c(N)nccc2c(C)c1CNc1nccc2nn(Cc3cn4cc(C5CC5)cnc4n3)cc12` [Example 392, 6-(((2-((6-cyclopropylimidazo[1,2-a]pyrimidin-2-yl)methyl)-2H-pyrazolo[4,3-c]pyridin-4-yl)amino)methyl)-5,7-dimethylisoquinolin-1-amine], the concentration for an effect of 90% (IC90) in experiment [1] is no more than 1 µM. For the same compound, in experiment [2], the 50% effective concentration (EC50) was less than 1 nM.

In experiment [1], `Cc1cc2c(N)nccc2c(C)c1CNc1cc(OCc2cc(C#N)c3ncc(Cl)cc3c2)ncn1` [Example 398, 6-(((6-(((1-amino-5,7-dimethylisoquinolin-6-yl)methyl)amino)pyrimidin-4-yl)oxy)methyl)-3-chloroquinoline-8-carbonitrile] returned an IC90 greater than 5 µM. Moreover, the EC50 in experiment [2] lay within 1 to 10 nM.

`Cc1cc2c(N)nccc2c(C)c1CNc1cc(OCc2cc3cc(C4CC4)ccn3n2)ncn1` [Example 400, 6-(((6-((5-cyclopropylpyrazolo[1,5-a]pyridin-2-yl)methoxy)pyrimidin-4-yl)amino)methyl)-5,7-dimethylisoquinolin-1-amine] yielded an IC90 in experiment [1] greater than 5 µM. For the same compound, the EC50 in experiment [2] was 1 to 10 nM.

In experiment [1], `Cc1cc2c(N)nccc2c(C)c1CNc1cc(OCc2cc(C(N)=O)c3ncc(Cl)cc3c2)ncn1` [Example 401, 6-(((6-(((1-amino-5,7-dimethylisoquinolin-6-yl)methyl)amino)pyrimidin-4-yl)oxy)methyl)-3-chloroquinoline-8-carboxamide] came in with an IC90 of 1 to 5 µM. Besides, the 50% effective concentration (EC50) in experiment [2] lay within 1 to 10 nM.

`Cc1cc2c(N)nccc2c(C)c1CNc1cc(Cc2cn3cc(C4CC4)ccc3n2)ncn1` [Example 403, 6-(((6-((6-cyclopropylimidazo[1,2-a]pyridin-2-yl)methyl)pyrimidin-4-yl)amino)methyl)-5,7-dimethylisoquinolin-1-amine] had a concentration for an effect of 90% (IC90) in experiment [1] of 1 to 5 µM. In addition, the EC50 in experiment [2] was less than 1 nM.
